Experimental findings from patent US5371099A, “Phenyl carboxamide isoxazoles” (Roussel-Uclaf, priority 1992, dated 1994) are described below.

Each structure is given as a SMILES string.

Data set [1] can be described thus: Pharmacokinetic comparison, plasma concentrations of parent compound and active metabolite in mice. It counts as in vivo. The following applies: 30 mg/kg orally. Here is the method: A pharmacokinetic comparison was made between the compound of Example 8 in which R5 is methyl and the corresponding known compound in which R5 is hydrogen. Each compound was administered orally to mice at a dose of 30 mg/kg and plasma concentrations of the parent compound and the corresponding active metabolite were determined at various time points after administration.

The subject of data set [2] is Carrageenan rat paw oedema. The data set is described as follows: Test 1: Carrageenan rat paw oedema (PO-R). It counts as in vivo, rat (male CFHB). The following applies: 3 h; for inhibition in vivo at 10 mg/kg: 10 mg/kg p.o.; for inhibition in vivo at 50 mg/kg: 50 mg/kg p.o. Here is the method:
Carrageenan rat paw oedema (PO-R)
One hour after the oral administration of the test compounds or control vehicle to groups of 6 to 12 male CFHB rats, weighing 160-180 g, 1 mg of carrageenan dissolved in 0.2 ml of saline was injected into the right hind foot pad. Contralateral paws received control saline injections. Paw oedema responses were assessed three hours later.
(§1) Doses are given in units of mg/kg p.o.
On the technique in general: In the carrageenan paw model, swelling and tenderness develop within hours.

In data set [3] the test system is Delayed-type hypersensitivity rat paw oedema. The data set is described as follows: Test 3: Delayed-type hypersensitivity rat paw oedema (DTH-R).
Data set [4] relates to Delayed-type hypersensitivity mouse paw oedema. The data set is described as follows: Test 2: Delayed-type hypersensitivity mouse paw oedema (DTH-M). Format: in vivo, mouse (male CD-1). The following applies: po, 24 h; for inhibition in vivo at 100 mg/kg: 100 mg/kg p.o. As for the experimental part:
Delayed-type hypersensitivity mouse paw oedema (DTH-M)
Groups of 8 to 10 mice, male CD-1 weighing 25-30 g were sensitized by the subcutaneous injection of 1 mg of methylated bovine serum albumin (MBSA) in 0.2 ml volumes of saline/Freund's complete adjuvant (FCA) emulsion. Negative control groups received injections of saline/FCA emulsion. DTH paw oedema responses were assessed twenty-four hours after the right hind foot pad challenge with 0.1 mg of MBSA in 0.05 ml volumes of saline on day seven after sensitization. Contralateral paws received control saline injections. The test compounds or control vehicles were orally administered daily on days four, five, six and twice on day seven, one hour before and six hours after MBSA challenge.
as §1

The mark [5] stands for this setting: Rattus norvegicus, po, 24 h, read-out: % Inhibition (Test 3, DTH-R).

`Cc1onc(C(=O)O)c1C(=O)Nc1ccc(OC(F)(F)F)cc1` [known compound, reference compound]: the “detectability of the active metabolite at 72 hours after administration” value in data set [1] (plasma, 72 hours) was “still being detectable”.
With `Cc1cc(NC(=O)c2c(C(=O)O)noc2C2CC2)ccc1OC(F)(F)F` [Example 13, 5-cyclopropyl-4-[N-(3-methyl-4-trifluoromethoxy)phenyl]carbamoyl-3-isoxazolecarboxylic acid], the inhibition in vivo at 10 mg/kg in data set [2] is 5%; in data set [3] (setting [5]) it was 47%. For the same molecule, in data set [4], the inhibition in vivo at 100 mg/kg was 52%.
Take `Cc1cc(NC(=O)c2c(C(=O)O)noc2C)ccc1C(F)(F)F` [Example 5, 5-methyl-4-[N-(3-methyl-4-trifluoromethyl)phenyl]carbamoyl-3-isoxazolecarboxylic acid]: the inhibition in vivo at 50 mg/kg in data set [2] came to 18%. In data set [3] (setting [5]), the inhibition in vivo at 10 mg/kg is 44% and the inhibition in vivo at 50 mg/kg worked out at 95%. Moreover, in data set [4], the inhibition in vivo at 100 mg/kg was 44%.
For `Cc1cc(NC(=O)c2c(C(=O)O)noc2C)ccc1C#N` [Example 6, 4-[N-(4-cyano-3-methyl)phenyl]carbamoyl-5-methyl-3-isoxazolecarboxylic acid], the values for the inhibition in vivo at 50 mg/kg in data set [2] and in data set [3] (setting [5]) were 5% and 25%, respectively. Moreover, the inhibition in vivo at 100 mg/kg in data set [4] came out at 5%.
In the case of `CCOC(=O)c1noc(C)c1C(=O)Nc1ccc(C(F)(F)F)c(C)c1` [Example 18, Ethyl 5-methyl-4-[N-(3-methyl-4-trifluoromethyl)phenyl]carbamoyl-3-isoxazolecarboxylate], the inhibition in vivo at 50 mg/kg in data set [2] was determined as 23%; in data set [3] (setting [5]), 50%. Also, the inhibition in vivo at 100 mg/kg in data set [4] was determined as 3%.
For `O=C(O)c1noc(C2CC2)c1C(=O)Nc1ccc(SC(F)(F)F)cc1` [Example 12, 5-cyclopropyl-4-[N-(4-trifluoromethylthio)phenyl]carbamoyl-3-isoxazolecarboxylic acid], the inhibition in vivo at 10 mg/kg in data set [2] came to 11%; in data set [3] (setting [5]) it was 75%. The inhibition in vivo at 100 mg/kg in data set [4] came out at 36%.
On to `O=C(O)c1noc(C2CC2)c1C(=O)Nc1ccc(OC(F)(F)F)cc1` [Example 11], for which, in data set [2] (3 mg/kg p.o.), the inhibition in vivo at 3 mg/kg is -2%. For the same molecule, the “toxicity printed in place of % Inhibition (Test 3, DTH-R)” value in data set [3] (50 mg/kg p.o.) is “Toxic”. Also, in data set [3] (setting [5]), the inhibition in vivo at 3 mg/kg is 65% and the inhibition in vivo at 10 mg/kg came to 95%. Besides, the inhibition in vivo at 30 mg/kg in data set [4] (30 mg/kg p.o.) stood at 37%. For the same molecule, the inhibition in vivo at 100 mg/kg in data set [4] was found to be 65%.
With `O=C(O)c1noc(C2CC2)c1C(=O)Nc1ccc(C(F)(F)F)cc1` [Example 9, 5-cyclopropyl-4-[N-(4-trifluoromethyl)phenyl]carbamoyl-3-isoxazolecarboxylic acid], in data set [1] (effect of methyl substituent), the “pharmacokinetics compared with known compound in which R5 is hydrogen” value is listed as “improved pharmacokinetics”. Also, the inhibition in vivo at 10 mg/kg is -24% in data set [2] and 45% in data set [3] (setting [5]). Besides, in data set [3] (setting [5]), the inhibition in vivo at 50 mg/kg was 86%. Besides, the inhibition in vivo at 100 mg/kg in data set [4] is 72%.
As to `Cc1cc(NC(=O)c2c(C(=O)O)noc2C)ccc1Br` [Example 3, 4-[N-(4-bromo-3-methyl)phenyl]carbamoyl-5-methyl-3-isoxazolecarboxylic acid], the inhibition in vivo at 50 mg/kg in data set [2] is -10%; in data set [3] (setting [5]), -4%. Further, the inhibition in vivo at 100 mg/kg in data set [4] came to 35%.
As to `Cc1cc(NC(=O)c2c(C(=O)O)noc2C)ccc1Cl` [Example 4, 4-[N-(4-chloro-3-methyl)phenyl]carbamoyl-5-methyl-3-isoxazolecarboxylic acid], the inhibition in vivo at 50 mg/kg in data set [2] was -10%; in data set [3] (setting [5]), 6%. The inhibition in vivo at 100 mg/kg in data set [4] was found to be 24%.
For `Cc1cc(NC(=O)c2c(C(=O)O)noc2C)ccc1OC(F)(F)F` [Example 8, 5-methyl-4-[N-(3-methyl-4-trifluoromethoxy)phenyl]carbamoyl-3-isoxazolecarboxylic acid], the “detectability of the active metabolite 24 hours after administration” value in data set [1] (plasma, 24 hours) is “no metabolite detectable”. The inhibition in vivo at 10 mg/kg in data set [2] was found to be 16%. In data set [3] (setting [5]), the inhibition in vivo at 10 mg/kg came to 34% and the inhibition in vivo at 50 mg/kg was 79%. For the same molecule, the inhibition in vivo at 100 mg/kg in data set [4] was found to be 48%.
In the case of `Cc1cc(NC(=O)c2c(C(=O)O)noc2C2CC2)ccc1C(F)(F)F` [Example 10, 5-cyclopropyl-4-[N-(3-methyl-4-trifluoromethyl)phenyl]carbamoyl-3-isoxazolecarboxylic acid], the values for the inhibition in vivo at 50 mg/kg in data set [2] and in data set [3] (setting [5]) were 5% and 73%, respectively. The inhibition in vivo at 100 mg/kg in data set [4] is 12%.
`Cc1onc(C(=O)O)c1C(=O)Nc1ccc(SC(F)(F)F)cc1` [Example 7, 5-methyl-4-[N-(4-trifluoromethylthio)phenyl]carbamoyl-3-isoxazolecarboxylicacid]: the inhibition in vivo at 50 mg/kg in data set [2] was 1%. Besides, in data set [3] (setting [5]), the inhibition in vivo at 10 mg/kg worked out at 42% and the inhibition in vivo at 50 mg/kg amounted to 73%. The inhibition in vivo at 100 mg/kg in data set [4] came to 14%.
On to `Cc1onc(C(=O)O)c1C(=O)Nc1ccc(C#N)cc1` [Example 2, 4-[N-(4-cyanophenyl)]carbamoyl-5-methyl-3-isoxazolecarboxylic acid], for which the values for the inhibition in vivo at 50 mg/kg in data set [2] and in data set [3] (setting [5]) were -25% and -47%, respectively. For the same molecule, the inhibition in vivo at 100 mg/kg in data set [4] came to 27%.
`Cc1onc(C(=O)O)c1C(=O)Nc1ccc([N+](=O)[O-])cc1` [Example 1, 5-methyl-4-[N-(4-nitrophenyl)]carbamoyl-3-isoxazolecarboxylic acid]: the inhibition in vivo at 50 mg/kg in data set [2] is -2%; in data set [3] (setting [5]) it was 28%. Besides, the inhibition in vivo at 100 mg/kg in data set [4] was found to be 41%.
